Patent US10167262B2, “Herbicidal substituted 3-arylpyrazoles” (FMC CORPORATION, priority 2014, dated 2019)

Experiments:
Format in all cases: in vivo
[1] = tested on: winter wheat (Triticum aestivum); assay: Test C pre-/postemergence greenhouse test, plant response rating 0-100; settings: Postemergence; for Plant response rating, Wheat: scale 0 to 100
Method in brief: (§1)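 Formulated in solvent with surfactant, test chemicals were sprayed on seeded loam/sand pots and, concurrently, on young plants 2–18 cm tall. Evaluation: visual, versus controls, day 13–15.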

[2] = tested on: yellow nutsedge (Cyperus esculentus); assay: as above; settings: Postemergence; for Plant response rating, Nutsedge, Yellow: scale 0 to 100
Method in brief: as §1

[3] = tested on: blackgrass (Alopecurus myosuroides); assay: as above; settings: Postemergence; for Plant response rating, Blackgrass: scale 0 to 100;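 for all read-outs here: 0 is no effect and 100 is complete control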
Method in brief: as §1

[4] = tested on: johnsongrass (Sorghum halepense); assay: as above; settings: Postemergence; for Plant response rating, Johnsongrass: scale 0 to 100
Method in brief: as §1

[5] = tested on: giant foxtail (Setaria faberii); assay: as above; settings: Postemergence; for Plant response rating, Foxtail, Giant: scale 0 to 100
Method in brief: as §1

[6] = tested on: pigweed (Amaranthus retroflexus); assay: as above; settings: Postemergence; for Plant response rating, Pigweed: scale 0 to 100
Method in brief: as §1

[7] = tested on: lambsquarters (Chenopodium album); assay: as above; settings: Postemergence; for Plant response rating, Lambsquarters: scale 0 to 100
Method in brief: as §1

[8] = tested on: large (Lg) crabgrass (Digitaria sanguinalis); assay: as above; settings: Postemergence; for Plant response rating, Crabgrass, Large: scale 0 to 100
Method in brief: as §1

soybean (Glycine max) = assay: as above; settings: Postemergence; for Plant response rating, Soybean: scale 0 to 100
Method in brief: as §1

corn (Zea mays) = assay: as above; settings: Postemergence; for Plant response rating, Corn: scale 0 to 100
Method in brief: as §1

[9] = tested on: chickweed (common chickweed, Stellaria media); assay: Test C postemergence greenhouse test, plant response rating 0-100; settings: for Plant response rating, Chickweed: scale 0 to 100
Method in brief: (§2)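 Each weed species was grown in potting medium and sprayed after emergence, when 2–18 cm tall. Ratings, made by eye relative to control pots, were recorded 13–15 days later using a scale where 0 is no effect.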

kochia (Kochia scoparia) = assay: as above; settings: for Plant response rating, Kochia: scale 0 to 100
Method in brief: as §2

wild oat (Avena fatua) = assay: as above; settings: for Plant response rating, Oat, Wild: scale 0 to 100
Method in brief: as §2

Q: What does the source list for `Fc1cccc(NN=C(c2ccccc2)c2c[nH]nc2-c2cc(Cl)cc(Cl)c2)c1` [Compound 58]?
A: Plant response rating (0 to 100), Wheat ([1]; 62 g ai/ha): 0; Plant response rating (0 to 100), Wheat ([1]; 125 g ai/ha): 0; Plant response rating, Wheat ([1]; 250 g ai/ha): 0; Plant response rating, Wheat ([1]; 500 g ai/ha): 0; Plant response rating (0 to 100), Nutsedge, Yellow ([2]; 62 g ai/ha): 0; Plant response rating (0 to 100), Nutsedge, Yellow ([2]; 125 g ai/ha): 0; Plant response rating, Nutsedge, Yellow ([2]; 250 g ai/ha): 0; Plant response rating, Nutsedge, Yellow ([2]; 500 g ai/ha): 0; Plant response rating (0 to 100), Blackgrass ([3]; 62 g ai/ha): 0; Plant response rating (0 to 100), Blackgrass ([3]; 125 g ai/ha): 0; Plant response rating, Blackgrass ([3]; 250 g ai/ha): 0; Plant response rating, Blackgrass ([3]; 500 g ai/ha): 0; Plant response rating (0 to 100), Johnsongrass ([4]; 62 g ai/ha): 0; Plant response rating (0 to 100), Johnsongrass ([4]; 125 g ai/ha): 25; Plant response rating, Johnsongrass ([4]; 250 g ai/ha): 25; Plant response rating, Johnsongrass ([4]; 500 g ai/ha): 25; Plant response rating (0 to 100), Foxtail, Giant ([5]; 62 g ai/ha): 0; Plant response rating (0 to 100), Foxtail, Giant ([5]; 125 g ai/ha): 0; Plant response rating, Foxtail, Giant ([5]; 250 g ai/ha): 0; Plant response rating, Foxtail, Giant ([5]; 500 g ai/ha): 5; Plant response rating (0 to 100), Pigweed ([6]; 62 g ai/ha): 100; Plant response rating (0 to 100), Pigweed ([6]; 125 g ai/ha): 100; Plant response rating, Pigweed ([6]; 250 g ai/ha): 100; Plant response rating, Pigweed ([6]; 500 g ai/ha): 100; Plant response rating (0 to 100), Lambsquarters ([7]; 62 g ai/ha): 70; Plant response rating (0 to 100), Lambsquarters ([7]; 125 g ai/ha): 100; Plant response rating, Lambsquarters ([7]; 250 g ai/ha): 100; Plant response rating, Lambsquarters ([7]; 500 g ai/ha): 100; Plant response rating (0 to 100), Crabgrass, Large ([8]; 62 g ai/ha): 5; Plant response rating (0 to 100), Crabgrass, Large ([8]; 125 g ai/ha): 5; Plant response rating, Crabgrass, Large ([8]; 250 g ai/ha): 5; Plant response rating, Crabgrass, Large ([8]; 500 g ai/ha): 5; Plant response rating (0 to 100), Soybean (soybean (Glycine max); 62 g ai/ha): 0; Plant response rating (0 to 100), Soybean (soybean (Glycine max); 125 g ai/ha): 5; Plant response rating, Soybean (soybean (Glycine max); 250 g ai/ha): 10; Plant response rating, Soybean (soybean (Glycine max); 500 g ai/ha): 10; Plant response rating (0 to 100), Corn (corn (Zea mays); 62 g ai/ha): 0; Plant response rating (0 to 100), Corn (corn (Zea mays); 125 g ai/ha): 5; Plant response rating, Corn (corn (Zea mays); 250 g ai/ha): 5; Plant response rating, Corn (corn (Zea mays); 500 g ai/ha): 5; Plant response rating (0 to 100), Chickweed ([9]; 62 g ai/ha): 70; Plant response rating (0 to 100), Chickweed ([9]; 125 g ai/ha): 100; Plant response rating, Chickweed ([9]; 250 g ai/ha): 100; Plant response rating, Chickweed ([9]; 500 g ai/ha): 100; Plant response rating (0 to 100), Kochia (kochia (Kochia scoparia); 62 g ai/ha): 15; Plant response rating (0 to 100), Kochia (kochia (Kochia scoparia); 125 g ai/ha): 50; Plant response rating, Kochia (kochia (Kochia scoparia); 250 g ai/ha): 98; Plant response rating, Kochia (kochia (Kochia scoparia); 500 g ai/ha): 98; Plant response rating (0 to 100), Oat, Wild (wild oat (Avena fatua); 62 g ai/ha): 0; Plant response rating (0 to 100), Oat, Wild (wild oat (Avena fatua); 125 g ai/ha): 0; Plant response rating, Oat, Wild (wild oat (Avena fatua); 250 g ai/ha): 0; Plant response rating, Oat, Wild (wild oat (Avena fatua); 500 g ai/ha): 0

Q: For `C=CCn1cc(C(=O)c2ccccc2)c(-c2cc(Cl)cc(Cl)c2)n1` [Compound 60], which “Plant response rating (0 to 100), Wheat” value ([1]; 62 g ai/ha) is on record?
A: Its value is 0.

Q: And the “Plant response rating (0 to 100), Wheat” value ([1]; 125 g ai/ha)?
A: Its value is 0.

Q: What about the “Plant response rating, Wheat” value ([1]; 250 g ai/ha) of the same compound?
A: The value was 0.

Q: And the “Plant response rating (0 to 100), Nutsedge, Yellow” value ([2]; 62 g ai/ha)?
A: The value was 0.

Q: And the “Plant response rating (0 to 100), Nutsedge, Yellow” value ([2]; 125 g ai/ha)?
A: The value was 0.

Q: What about the “Plant response rating, Nutsedge, Yellow” value ([2]; 250 g ai/ha) of the same compound?
A: The value was 0.

Q: What about the “Plant response rating (0 to 100), Blackgrass” value ([3]; 31 g ai/ha) of the same compound?
A: The value was 0.

Q: And the “Plant response rating (0 to 100), Blackgrass” value ([3]; 62 g ai/ha)?
A: Its value is 0.

Q: And the “Plant response rating (0 to 100), Blackgrass” value ([3]; 125 g ai/ha)?
A: The value was 0.

Q: And the “Plant response rating, Blackgrass” value ([3]; 250 g ai/ha)?
A: The value was 0.

Q: And the “Plant response rating (0 to 100), Johnsongrass” value ([4]; 62 g ai/ha)?
A: The value was 0.

Q: What about the “Plant response rating (0 to 100), Johnsongrass” value ([4]; 125 g ai/ha) of the same compound?
A: The value was 5.

Q: What about the “Plant response rating, Johnsongrass” value ([4]; 250 g ai/ha) of the same compound?
A: Its value is 5.

Q: And the “Plant response rating (0 to 100), Foxtail, Giant” value ([5]; 31 g ai/ha)?
A: Its value is 0.

Q: And the “Plant response rating (0 to 100), Foxtail, Giant” value ([5]; 62 g ai/ha)?
A: The value was 5.

Q: And the “Plant response rating (0 to 100), Foxtail, Giant” value ([5]; 125 g ai/ha)?
A: Its value is 5.

Q: And the “Plant response rating, Foxtail, Giant” value ([5]; 250 g ai/ha)?
A: Its value is 5.

Q: What about the “Plant response rating (0 to 100), Pigweed” value ([6]; 62 g ai/ha) of the same compound?
A: Its value is 60.

Q: And the “Plant response rating (0 to 100), Pigweed” value ([6]; 125 g ai/ha)?
A: The value was 65.

Q: And the “Plant response rating, Pigweed” value ([6]; 250 g ai/ha)?
A: The value was 100.

Q: And the “Plant response rating (0 to 100), Lambsquarters” value ([7]; 62 g ai/ha)?
A: The value was 5.

Q: And the “Plant response rating (0 to 100), Lambsquarters” value ([7]; 125 g ai/ha)?
A: The value was 40.

Q: What about the “Plant response rating, Lambsquarters” value ([7]; 250 g ai/ha) of the same compound?
A: The value was 60.

Q: What about the “Plant response rating (0 to 100), Crabgrass, Large” value ([8]; 31 g ai/ha) of the same compound?
A: The value was 0.

Q: And the “Plant response rating (0 to 100), Crabgrass, Large” value ([8]; 62 g ai/ha)?
A: Its value is 0.

Q: What about the “Plant response rating (0 to 100), Crabgrass, Large” value ([8]; 125 g ai/ha) of the same compound?
A: The value was 5.

Q: And the “Plant response rating, Crabgrass, Large” value ([8]; 250 g ai/ha)?
A: Its value is 5.

Q: What about the “Plant response rating (0 to 100), Soybean” value (soybean (Glycine max); 62 g ai/ha) of the same compound?
A: Its value is 5.

Q: And the “Plant response rating (0 to 100), Soybean” value (soybean (Glycine max); 125 g ai/ha)?
A: Its value is 5.

Q: And the “Plant response rating, Soybean” value (soybean (Glycine max); 250 g ai/ha)?
A: Its value is 5.

Q: What about the “Plant response rating (0 to 100), Corn” value (corn (Zea mays); 31 g ai/ha) of the same compound?
A: The value was 5.

Q: And the “Plant response rating (0 to 100), Corn” value (corn (Zea mays); 62 g ai/ha)?
A: The value was 5.

Q: And the “Plant response rating (0 to 100), Corn” value (corn (Zea mays); 125 g ai/ha)?
A: Its value is 5.

Q: And the “Plant response rating, Corn” value (corn (Zea mays); 250 g ai/ha)?
A: Its value is 5.

Q: What about the “Plant response rating (0 to 100), Chickweed” value ([9]; 31 g ai/ha) of the same compound?
A: Its value is 75.

Q: And the “Plant response rating (0 to 100), Chickweed” value ([9]; 125 g ai/ha)?
A: The value was 100.

Q: And the “Plant response rating, Chickweed” value ([9]; 250 g ai/ha)?
A: The value was 100.

Q: What about the “Plant response rating (0 to 100), Kochia” value (kochia (Kochia scoparia); 62 g ai/ha) of the same compound?
A: The value was 10.

Q: What about the “Plant response rating (0 to 100), Kochia” value (kochia (Kochia scoparia); 125 g ai/ha) of the same compound?
A: Its value is 20.

Q: What about the “Plant response rating, Kochia” value (kochia (Kochia scoparia); 250 g ai/ha) of the same compound?
A: The value was 55.

Q: What about the “Plant response rating (0 to 100), Oat, Wild” value (wild oat (Avena fatua); 62 g ai/ha) of the same compound?
A: The value was 0.

Q: And the “Plant response rating (0 to 100), Oat, Wild” value (wild oat (Avena fatua); 125 g ai/ha)?
A: The value was 0.

Q: What about the “Plant response rating, Oat, Wild” value (wild oat (Avena fatua); 250 g ai/ha) of the same compound?
A: The value was 0.
